Laboratory results reported in patent US20050137185A1, “Combinations of drugs for the treatment of neoplasms” (priority 2003, published 2005).
Like-named read-outs stand apart in the source and are kept apart here.

Tested on: HCT116 cells
Assay: Anti-proliferation assay (Alamar Blue metabolism)
Type: cell-based
Settings: Homo sapiens, read-out: Percent inhibition of Alamar Blue Metabolism in HCT116 cells; for inhibition at 5 µM: HCT-116, chlorpromazine 5 μM; for inhibition at 10 µM: HCT-116, chlorpromazine 10 μM; for inhibition at 40 µM: HCT-116, chlorpromazine 40 μM
Protocol: Stock solutions (1000×) of each compound were prepared in DMSO and stored at −20° C. Master stock plates of 2-fold or 4-fold serial dilutions of individual compounds were prepared in 384-well plates. Combination matrices of test compounds were generated from these master stock plates by dilution into growth media described above. […] The combination matrices were used immediately and discarded.
The anti-proliferation assays were performed in 384-well plates. […] Cells were diluted in culture media such that 1500 cells were delivered in 40 μL of media into each assay well. […] 10× stock solutions (4.5 μL) from the combination matrices were added to 40 μL of culture media in assay wells. Assay plates were incubated for 72-80 hours at 37±0.5° C. with 5% CO2. […] Alamar Blue metabolism was quantified by the amount of fluorescence intensity 3.5-5.0 hours after addition. Quantification, using an LJL Analyst AD reader (LJL Biosystems), was taken in the middle of the well with high attenuation, a 100 msec read time, an excitation filter at 530 nm, and an emission filter at 575 nm. For some experiments, quantification was performed using a Wallac Victor^2 reader. Measurements were taken at the top of the well with stabilized energy lamp control; a 100 msec read time, an excitation filter at 530 nm, and an emission filter at 590 nm.

SMILES: CN(C)CCCN1c2ccccc2Sc2ccc(Cl)cc21 [Chlorpromazine, chlorpromazine]
- inhibition at 7 µM (HCT-116, 72 h, chlorpromazine 7 μM, tyrphostin 1486 0 μM): -18.6%
- inhibition at 14 µM (HCT-116, 72 h, chlorpromazine 14 μM, tyrphostin 1486 0 μM): -12.5%
- inhibition at 28 µM (HCT-116, 72 h, chlorpromazine 28 μM, tyrphostin 1486 0 μM): 62.2%
- inhibition at 56 µM (HCT-116, 72 h, chlorpromazine 56 μM, tyrphostin 1486 0 μM): 85.6%
- inhibition at […] (HCT-116, 72 h, chlorpromazine […], tyrphostin 1486 0 μM): 95.9%
- inhibition at 5 µM (dacarbazine 0 μM): 17%
- inhibition at 5 µM (docetaxel 0 μM): 2.8%
- inhibition at 5 µM (floxuridine 0 μM): 3.53%
- inhibition at 5 µM (hydroxycamptothecin 0 μM): 24%
- inhibition at 5 µM (leucovorin 0 μM): -4.39%
- inhibition at 5 µM (paclitaxel 0 μM): -11.8%
- inhibition at 5 µM (vinblastine 0 μM): -20%
- inhibition at 5 µM (vinorelbine 0 μM): -20%
- inhibition at 10 µM (dacarbazine 0 μM): 54.6%
- inhibition at 10 µM (docetaxel 0 μM): 84.8%
- inhibition at 10 µM (floxuridine 0 μM): 65.4%
- inhibition at 10 µM (hydroxycamptothecin 0 μM): 84%
- inhibition at 10 µM (leucovorin 0 μM): 3.27%
- inhibition at 10 µM (paclitaxel 0 μM): 56.2%
- inhibition at 10 µM (vinblastine 0 μM): 50.8%
- inhibition at 10 µM (vinorelbine 0 μM): 60%
- inhibition at 20 µM (HCT-116, chlorpromazine 20 μM, docetaxel 0 μM): 91.9%
- inhibition at 20 µM (HCT-116, chlorpromazine 20 μM, floxuridine 0 μM): 88.5%
- inhibition at 20 µM (HCT-116, chlorpromazine 20 μM, hydroxycamptothecin 0 μM): 88.2%
- inhibition at 20 µM (HCT-116, chlorpromazine 20 μM, leucovorin 0 μM): 80.9%
- inhibition at 20 µM (HCT-116, chlorpromazine 20 μM, paclitaxel 0 μM): 87%
- inhibition at 20 µM (HCT-116, chlorpromazine 20 μM, vinblastine 0 μM): 85.8%
- inhibition at 20 µM (HCT-116, chlorpromazine 20 μM, vinorelbine 0 μM): 88.4%
- inhibition at 40 µM (dacarbazine 0 μM): 95.8%
- inhibition at 40 µM (docetaxel 0 μM): 95.7%
- inhibition at 40 µM (floxuridine 0 μM): 95.7%
- inhibition at 40 µM (hydroxycamptothecin 0 μM): 95.8%
- inhibition at 40 µM (leucovorin 0 μM): 95.6%
- inhibition at 40 µM (paclitaxel 0 μM): 95.7%
- inhibition at 40 µM (vinblastine 0 μM): 94.5%
- inhibition at 40 µM (vinorelbine 0 μM): 94.7%
- inhibition at […] (HCT-116, chlorpromazine […], dacarbazine 0 μM): 4.03%
- inhibition at […] (HCT-116, chlorpromazine […], docetaxel 0 μM): -12.2%
- inhibition at […] (HCT-116, chlorpromazine […], floxuridine 0 μM): -0.0804%
- inhibition at […] (HCT-116, chlorpromazine […], hydroxycamptothecin 0 μM): -8.14%
- inhibition at […] (HCT-116, chlorpromazine […], leucovorin 0 μM): -0.0253%
- inhibition at […] (HCT-116, chlorpromazine […], paclitaxel 0 μM): 10.1%
- inhibition at […] (HCT-116, chlorpromazine […], vinblastine 0 μM): -20%
- inhibition at […] (HCT-116, chlorpromazine […], vinorelbine 0 μM): -0.591%

SMILES: CCC1=C[C@@H]2CN(C1)Cc1c([nH]c3ccccc13)[C@@](C(=O)OC)(c1cc3c(cc1OC)N(C)[C@H]1[C@@](O)(C(=O)OC)[C@H](OC(C)=O)[C@]4(CC)C=CCN5CC[C@]31[C@@H]54)C2 [Vinorelbine, vinorelbine]
- inhibition at 0.004 µM (HCT-116, chlorpromazine 0 μM, vinorelbine 0.004 μM): -8.91%
- inhibition at 0.008 µM (HCT-116, chlorpromazine 0 μM, vinorelbine 0.008 μM): 42.1%

SMILES: COc1cc2ncnc(Nc3cccc(Cl)c3)c2cc1OC [Tyrphostin 1486, Tyrphostin AG1478]
- inhibition at 13 µM (HCT-116, chlorpromazine 0 μM, tyrphostin 1486 13 μM): 78.7%
- inhibition at 26 µM (HCT-116, chlorpromazine 0 μM, tyrphostin 1486 26 μM): 81.4%
- inhibition at 51 µM (HCT-116, chlorpromazine 0 μM, tyrphostin 1486 51 μM): 81.3%

SMILES: Nc1nc2c(c(=O)[nH]1)N(C=O)C(CNc1ccc(C(=O)N[C@@H](CCC(=O)O)C(=O)O)cc1)CN2 (some centres unmarked) [Leucovorin, leucovorin]
- inhibition at 20 µM (HCT-116, chlorpromazine 0 μM, leucovorin 20 μM): -11.5%

SMILES: CN(C)/N=N/c1[nH]cnc1C(N)=O [Dacarbazine, dacarbazine]
- inhibition at 14 µM (HCT-116, chlorpromazine 0 μM, dacarbazine 14 μM): 42.6%
- inhibition at 27 µM (HCT-116, chlorpromazine 0 μM, dacarbazine 27 μM): 64.6%
- inhibition at 55 µM (HCT-116, chlorpromazine 0 μM, dacarbazine 55 μM): 74.2%
